Measurements reported in ChEMBL document CHEMBL1133789, “The discovery of anthranilic acid-based MMP inhibitors. Part 1: SAR of the 3-position” (Bioorg Med Chem Lett, 2001).
Values belong to the compound of their own block, whether it stands above or below them. Activity calls are given as the source filed them.

Assays:
[1] = biological target: T1, Interstitial collagenase (Homo sapiens) (UniProt P03956); assay: Inhibition of Matrix metalloprotease-1 at 1 uM
T1 sequence (whole entry): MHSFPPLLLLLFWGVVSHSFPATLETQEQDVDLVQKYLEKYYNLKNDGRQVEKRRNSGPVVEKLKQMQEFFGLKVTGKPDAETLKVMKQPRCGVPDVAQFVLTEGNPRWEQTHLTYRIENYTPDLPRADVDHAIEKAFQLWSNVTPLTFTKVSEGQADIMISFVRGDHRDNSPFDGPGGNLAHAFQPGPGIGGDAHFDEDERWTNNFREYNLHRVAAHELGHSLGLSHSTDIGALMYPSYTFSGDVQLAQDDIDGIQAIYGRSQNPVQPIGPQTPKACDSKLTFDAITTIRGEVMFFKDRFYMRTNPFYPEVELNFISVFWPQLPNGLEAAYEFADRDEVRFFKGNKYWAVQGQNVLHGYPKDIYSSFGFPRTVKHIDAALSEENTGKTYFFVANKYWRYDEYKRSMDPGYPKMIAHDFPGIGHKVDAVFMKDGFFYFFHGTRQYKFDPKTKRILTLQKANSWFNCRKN

[2] = biological target: T2, Matrix metalloproteinase-9 (Homo sapiens, UniProt P14780); assay: Inhibitory activity against Matrix metalloprotease-9
T2 sequence (P14780 whole entry): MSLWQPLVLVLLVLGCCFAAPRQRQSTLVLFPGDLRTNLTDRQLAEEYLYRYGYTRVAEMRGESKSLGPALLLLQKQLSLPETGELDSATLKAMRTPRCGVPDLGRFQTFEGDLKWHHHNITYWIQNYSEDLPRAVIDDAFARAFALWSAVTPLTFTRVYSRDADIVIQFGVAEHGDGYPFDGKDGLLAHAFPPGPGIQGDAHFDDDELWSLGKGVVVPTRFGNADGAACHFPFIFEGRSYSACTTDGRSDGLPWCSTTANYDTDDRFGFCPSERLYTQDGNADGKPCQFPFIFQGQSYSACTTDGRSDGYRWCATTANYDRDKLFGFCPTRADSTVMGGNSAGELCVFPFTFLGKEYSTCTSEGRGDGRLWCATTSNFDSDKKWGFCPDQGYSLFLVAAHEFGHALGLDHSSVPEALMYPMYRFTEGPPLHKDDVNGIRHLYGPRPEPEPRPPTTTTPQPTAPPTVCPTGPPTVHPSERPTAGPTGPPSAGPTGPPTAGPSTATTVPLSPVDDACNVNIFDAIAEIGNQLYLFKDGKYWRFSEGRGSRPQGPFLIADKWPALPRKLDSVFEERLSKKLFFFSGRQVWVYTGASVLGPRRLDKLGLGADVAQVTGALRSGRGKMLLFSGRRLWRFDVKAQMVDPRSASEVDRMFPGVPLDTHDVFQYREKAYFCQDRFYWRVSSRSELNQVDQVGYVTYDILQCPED

Interstitial collagenase = biological target: T3, Interstitial collagenase (Homo sapiens, UniProt P03956); assay: Inhibitory activity against Matrix metalloprotease-1
T3 sequence (P03956 whole entry): T1 sequence (whole entry)

Collagenase 3 = Collagenase 3 (Homo sapiens, UniProt P45452)
Description: Inhibitory activity against Matrix metalloprotease-13

[3] = biological target: Disintegrin and metalloproteinase domain-containing protein 17 (Homo sapiens, UniProt P78536)
Disintegrin and metalloproteinase domain-containing protein 17, sequence (P78536 whole entry, the tested form may be a part): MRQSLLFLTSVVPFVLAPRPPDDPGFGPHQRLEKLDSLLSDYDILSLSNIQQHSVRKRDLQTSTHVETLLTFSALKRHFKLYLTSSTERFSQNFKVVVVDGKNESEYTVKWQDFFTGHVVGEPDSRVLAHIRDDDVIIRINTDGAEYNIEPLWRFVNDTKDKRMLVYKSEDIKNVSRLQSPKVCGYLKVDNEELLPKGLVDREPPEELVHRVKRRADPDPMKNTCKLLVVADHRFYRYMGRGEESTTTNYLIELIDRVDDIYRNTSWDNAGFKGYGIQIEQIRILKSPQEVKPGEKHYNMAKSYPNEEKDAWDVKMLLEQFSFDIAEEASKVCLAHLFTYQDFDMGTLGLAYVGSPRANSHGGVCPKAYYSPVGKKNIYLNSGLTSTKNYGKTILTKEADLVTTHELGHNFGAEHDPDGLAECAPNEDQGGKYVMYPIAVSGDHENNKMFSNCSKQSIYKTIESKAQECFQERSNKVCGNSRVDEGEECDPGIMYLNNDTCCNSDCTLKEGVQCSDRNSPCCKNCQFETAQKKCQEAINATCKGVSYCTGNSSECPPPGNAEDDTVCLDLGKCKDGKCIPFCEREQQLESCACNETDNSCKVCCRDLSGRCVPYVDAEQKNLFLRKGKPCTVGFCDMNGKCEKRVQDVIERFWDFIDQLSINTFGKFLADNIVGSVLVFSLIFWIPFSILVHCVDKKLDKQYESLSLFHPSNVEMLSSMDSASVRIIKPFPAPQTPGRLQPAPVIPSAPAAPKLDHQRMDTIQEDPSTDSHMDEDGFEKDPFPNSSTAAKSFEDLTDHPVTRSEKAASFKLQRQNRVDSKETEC
Description: Inhibition of TNF-alpha converting enzyme (TACE)

[4] = biological target: T1, Interstitial collagenase (Homo sapiens); assay: Inhibition of Matrix metalloprotease-1 at 1 uM (inactive)
[5] = biological target: T1, Interstitial collagenase (Homo sapiens); assay: Inhibition of Matrix metalloprotease-1 (inactive)
Bos taurus [6] = species: Bos taurus; assay: Inhibition of collagen degradation in a bovine articular cartilage assay; format: functional
[7] = biological target: T2, Matrix metalloproteinase-9; assay: Tested the po dose effective against Matrix metalloprotease-9 in the dialysis tubing implant assay; format: functional, organism-based
[8] = biological target: T2, Matrix metalloproteinase-9; assay: Dose at which the compound was equipotent with CGS-27023 against matrix metalloprotease-9 in the dialysis tubing implant assay; format: functional
Rattus norvegicus = assay: In vivo inhibition of collagen degradation in a rat sponge wrapped cartilage model at a dose of 50 mg/kg ip; format: functional; details: route intraperitoneal
Bos taurus [9] = species: Bos taurus; assay: animal or person; details: po, read-out: Inhibition

SMILES: COc1ccc(S(=O)(=O)N(Cc2ccccc2)c2c(C(=O)NO)cccc2N(C)C)cc1
inhibition [1]: 19%

SMILES: COC(=O)c1cccc(C(=O)NO)c1N(Cc1cccnc1)S(=O)(=O)c1ccc(OC)cc1
IC50 [2]: 6 nM

SMILES: COc1ccc(S(=O)(=O)N(Cc2ccccc2)c2c(OC(C)(C)C(=O)NO)cccc2C(=O)NO)cc1
IC50 (Interstitial collagenase): 597 nM
IC50 [2]: 4 nM

IC50 (Interstitial collagenase): 520 nM
SMILES: COc1ccc(S(=O)(=O)N(Cc2ccccc2)c2c(OC)cccc2C(=O)NO)cc1

SMILES: COc1ccc(S(=O)(=O)N(Cc2ccccc2)c2c(OCC(=O)NO)cccc2C(=O)NO)cc1
IC50 [2]: 2 nM
IC50 (Collagenase 3): 1 nM
IC50 [3]: 81 nM

inhibition [4]: inactive
SMILES: COc1ccc(S(=O)(=O)N(Cc2ccccc2)c2cccc(C(=O)NO)c2)cc1

inhibition [5]: inactive
SMILES: COc1ccc(S(=O)(=O)N(Cc2ccccc2)c2ccc(C(=O)NO)cc2)cc1

SMILES: COc1ccc(S(=O)(=O)N(Cc2ccccc2)c2c(C(=O)NO)cccc2[N+](=O)[O-])cc1
IC50 (Interstitial collagenase): 202 nM
IC50 [2]: 13 nM
IC50 (Collagenase 3): 42 nM

SMILES: COc1ccc(S(=O)(=O)N(Cc2ccccc2)c2c(C(=O)NO)cccc2C(F)(F)F)cc1
inhibition [1]: 41%
IC50 (Collagenase 3): 136 nM

IC50 (Interstitial collagenase): 143 nM
ED50 [7]: 33 mg/kg
DOSE [8]: 50 mg/kg
SMILES: COc1ccc(S(=O)(=O)N(Cc2cccnc2)c2c(C)cccc2C(=O)NO)cc1
Inhibition (Bos taurus [6]): 49%
inhibition in vivo at 50 mg/kg (Rattus norvegicus): 51%

SMILES: COc1ccc(S(=O)(=O)N(Cc2cccnc2)[C@@H](C(=O)NO)C(C)C)cc1 [CGS-27023A]
inhibition in vivo at 50 mg/kg (Bos taurus [9]): 52%
